Source: patent US9884048B2, “ERK inhibitors” (Merck Sharp & Dohme Corp., priority 2014, dated 2018)
pIC50: −log10 of the molar value.

Target: phosphorylated active hERK2 enzyme (Homo sapiens (Human), UniProt P28482)
Settings: not given

Sequence of phosphorylated active hERK2 enzyme (P28482 whole entry): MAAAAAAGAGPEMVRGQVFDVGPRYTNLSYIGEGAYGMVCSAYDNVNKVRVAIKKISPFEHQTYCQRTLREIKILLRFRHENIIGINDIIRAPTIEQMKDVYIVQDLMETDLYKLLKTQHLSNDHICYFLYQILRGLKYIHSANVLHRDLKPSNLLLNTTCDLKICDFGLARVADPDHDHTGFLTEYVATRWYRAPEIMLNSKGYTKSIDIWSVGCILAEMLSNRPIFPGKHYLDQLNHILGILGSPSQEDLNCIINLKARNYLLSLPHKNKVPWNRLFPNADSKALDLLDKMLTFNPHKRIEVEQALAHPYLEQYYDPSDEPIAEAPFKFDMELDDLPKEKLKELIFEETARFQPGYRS

Row | pIC50 | Structure (SMILES)
1 | 7.18 | Cc1cc(-n2ncc3cc(NC(=O)N[C@H]4CCC[C@@H]4Oc4ccc(F)cc4)ncc32)ccn1 (racemic) [Example 166, Racemic trans 1-[(1S,2S) and (1R,2R)-2-(4-fluorophenoxy)cyclopentyl]-3-[1-(2-methylpyridin-4-yl)-1H-pyrazolo[3,4-c]-pyridin-5-yl)urea]

Same assay, conditions: read-out: ERK2 IC50; IMAP-FP assay; 0.5 nM hERK2, 30 μM ATP; 10 point titration, 3 μM starting concentration

Row | pIC50 | Structure (SMILES)
2 | 8.55 | Cc1cc(-n2ncc3cc(NC(=O)N[C@H](C)c4ccccc4)nc(C)c32)ccn1 [Example 251, 1-[7-methyl-1-(2-methylpyridin-4-yl)-1H-pyrazolo[3,4-c]pyridin-5-yl]-3-[(1R)-1-phenylethyl]urea]
3 | 7.49 | Cc1cc(-n2ncc3cc(NC(=O)N[C@H]4CN(C)C[C@@H]4c4cc(C)on4)ncc32)ccn1 [Example 150, 1-[(3R,4S)-1-methyl-4-(5-methylisoxazol-3-yl)pyrrolidin-3-yl]-3-[1-(2-methylpyridin-4-yl)-1H-pyrazolo[3,4-c]pyridin-5-yl]urea]
4 | 7.94 | COCCOCc1nc(NC(=O)N[C@H](C)c2ccccc2)cc2cnn(-c3ccnc(C)c3)c12 [Example 248, 1-{7-[(2-methoxyethoxy)methyl]-1-(2-methylpyridin-4-yl)-1H-pyrazolo[3,4-c]pyridin-5-yl}-3-[(1R)-1-phenylethyl]urea]
5 | 6.61 | Cc1cc(-n2ncc3cc(NC(=O)NCC(c4ccccn4)N4CCOCC4)ncc32)ccn1 (centres unmarked) [Example 73, 1-[1-(2-methylpyridin-4-yl)-1H-pyrazolo[3,4-c]pyridin-5-yl]-3-(2-morpholin-4-yl-2-pyridin-2-ylethyl)urea]
6 | 7.60 | Cc1cc(-n2ncc3cc(NC(=O)N[C@H](C)c4ccccc4)nc(COCCOCc4ccccc4)c32)ccn1 [Example 252, 1-[7-{[2-(benzyloxy)ethoxy]methyl}-1-(2-methylpyridin-4-yl)-1H-pyrazolo[3,4-c]pyridin-5-yl]-3-[(1R)-1-phenylethyl]urea]

Continued, compound first:

Row | Structure (SMILES) | pIC50
7 | Cc1cc(-n2ncc3cc(NC(=O)N[C@@H]4CCN(C)C4)ncc32)ccn1 [Example 20, 1-[1-(2-methylpyridin-4-yl)-1H-pyrazolo[3,4-c]pyridin-5-yl]-3-[(3R)-1-methylpyrrolidin-3-yl)urea] | 7.30
8 | CCO[C@H]1CNC[C@@H]1NC(=O)Nc1cc2cnn(-c3ccnc(C)c3)c2cn1 [Example 272, 1-[(3S,4S)-4-ethoxypyrrolidin-3-yl]-3-[1-(2-methylpyridin-4-yl)-1H-pyrazolo[3,4-c]pyridin-5-yl]urea] | 7.40
9 | Cn1cc(-n2ncc3cc(NC(=O)NCc4cccc(Cl)c4)ncc32)cn1 [Example 216, 1-(3-chlorobenzyl)-3-[1-(1-methyl-1H-pyrazol-4-yl)-1H-pyrazolo[3,4-c]pyridin-5-yl]urea] | 7.80
10 | COCCOC[C@@H](NC(=O)Nc1cc2cnn(-c3ccnc(C)c3)c2cn1)c1ccccc1 [Example 136, 1-[(1S)-2-(2-methoxyethoxy)-1-phenylethyl]-3-[1-(2-methylpyridin-4-yl)-1H-pyrazolo[3,4-c]pyridin-5-yl]urea] | 8.36
11 | Cc1cc(-n2ncc3cc(NC(=O)NCc4ccc5c(c4)CC(=O)N5)ncc32)ccn1 [Example 74, 1-[1-(2-methylpyridin-4-yl)-1H-pyrazolo[3,4-c]pyridin-5-yl]-3-[(2-oxo-2,3-dihydro-1H-indol-5-yl)methyl]urea] | 7.14
12 | Cc1cc(-n2ncc3cc(NC(=O)NC(CCN(C)C)c4ccccc4)ncc32)ccn1 (centres unmarked) [Example 51, 1-[3-(dimethylamino)-1-phenylpropyl]-3-[1-(2-methylpyridin-4-yl)-1H-pyrazolo[3,4-c]pyridin-5-yl)urea] | 8.57
13 | C[C@H](NC(=O)Nc1cc2cnn(-c3ccc(F)cc3)c2cn1)c1ccccn1 [Example 221, 1-[1-(4-fluorophenyl)-1H-pyrazolo[3,4-c]pyridin-5-yl]-3-[(1S)-1-pyridin-2-ylethyl]urea] | 5.75
14 | Cc1cc(-n2ncc3cc(NC(=O)NC[C@@H]4CCNC4)ncc32)ccn1 [Example 286, 1-[1-(2-methylpyridin-4-yl)-1H-pyrazolo[3,4-c]pyridin-5-yl]-3-[(3R)-pyrrolidin-3-ylmethyl]urea] | 7.63
